{"source": "patent US10265294B2", "about": "“Compositions and methods for treating epithelial cancer” (YALE UNIVERSITY, priority 2016, dated 2019)", "key": {"[1]": {"test_system": "i.p. tumors of mCherry+OCSC1-F2 ovarian cancer cells", "assay": "Intra-peritoneal ovarian cancer xenograft, primary disease dose response", "format": "in vivo, athymic nude mice", "protocol": "The Yale University Institutional Animal Care and Use Committee approved all in vivo studies described. Intra-peritoneal tumors were established in athymic nude mice using 4×10^6 mCherry+OCSC1-F2 ovarian cancer cells (Craveiro, et al., 2013, Cancer Med. 2:751-762). […] Establishment of i.p. tumors was confirmed by live imaging (In-Vivo FX PRO, Bruker Corp., Billerica, Mass.) prior to treatment. TRX-E-002-1 was prepared in 20% Captisol or Dexsolve and administered daily at 50 mg/kg or 100 mg/kg. Paclitaxel was given at 12 mg/kg q3d and Cisplatin at 5 mg/kg weekly. All treatments were given i.p. Tumor growth was monitored q3d by live imaging and response to treatment was assessed using ROI area.\nAn intra-peritoneal (i.p.) recurrent ovarian cancer xenograft model established using ovarian cancer cells stably expressing mCherry fluorescence has been established. This allows the detection of i.p. tumors and real-time measurement of response during the course of treatment. This model recapitulates the clinical profile typically seen in patients with ovarian cancer and helps one answer three questions: (1) in vivo activity of TRX-E-002-1 against primary disease; (2) ability of TRX-E-002-1 given in combination with chemotherapy to prevent/delay recurrence; and (3) ability of TRX-E-002-1 given as maintenance after chemotherapy to prevent/delay recurrence.\n(§1) To determine activity against primary disease as well as to determine the maximum tolerated dose (MTD), a dose response study was performed. […] Animals however recovered from the distension upon cessation of treatment. […] Thus, the MTD was established at daily 100 mg/kg i.p. and this dose was employed for the succeeding studies employing combination treatment."}, "[2]": {"conditions": "mouse, in vivo", "from_the_text": "The Yale University Institutional Animal Care and Use Committee approved all in vivo studies described. Intra-peritoneal tumors were established in athymic nude mice using 4×10^6 mCherry+OCSC1-F2 ovarian cancer cells (Craveiro, et al., 2013, Cancer Med. 2:751-762). Injection of cancer cells is designated as day 0 and treatment commenced between day 3-5. Establishment of i.p. tumors was confirmed by live imaging (In-Vivo FX PRO, Bruker Corp., Billerica, Mass.) prior to treatment. TRX-E-002-1 was prepared in 20% Captisol or Dexsolve and administered daily at 50 mg/kg or 100 mg/kg. Paclitaxel was given at 12 mg/kg q3d and Cisplatin at 5 mg/kg weekly. All treatments were given i.p. Tumor growth was monitored q3d by live imaging and response to treatment was assessed using ROI area.\nas §1"}, "[3]": {"test_system": "chemoresistant ovarian cancer stem cells", "assay": "OCSC growth and morphology with TRX-E-002-1, AICAR or the combination", "format": "cell-based, human", "protocol": "The effect of each compound on cell growth was assessed using a kinetic live cell imagine system (Incucyte, Essen Bioscience). Proliferation was determined based on either confluence or fluorescent count from nuclear-restricted RFP or GFP. The IC50 values were calculated using GraphPad Prism (GraphPad Software Inc., LaJolla, Calif.). […]"}}}
{"smiles": "COc1cc(C2COc3c(ccc(O)c3C)C2c2ccc(O)cc2)cc(OC)c1O", "note": "(single isomer, unassigned) [TRX-E-002-1]", "values": [{"measurement": "tumor burden compared to vehicle control", "setting": "[1]; 50 mg/kg daily i.p., starting at day 14", "value": "significant reduction"}, {"measurement": "residual disease at completion of the treatment", "setting": "[1]; 100 mg/kg daily i.p.", "value": "very little residual disease"}, {"measurement": "p-c-Jun and total c-Jun in residual tumors", "setting": "[1]; 100 mg/kg daily i.p., Western blot", "value": "upregulation"}, {"measurement": "tumor burden compared to vehicle control", "setting": "[1]; 100 mg/kg daily i.p., starting at day 10", "value": "significant reduction"}, {"measurement": "tumor burden", "setting": "[1]; 150 mg/kg i.p. three times weekly, by the 10th dose", "value": "significant decrease"}, {"measurement": "toxicity at high concentrations in animal studies", "setting": "[2]", "value": "evidence of some potential toxicity"}, {"measurement": "maximum tolerated dose (MTD)", "setting": "[2]; ip", "value": 100, "unit": "mg/kg"}, {"measurement": "cell morphology / apoptotic cells", "setting": "[3]; 48 hours, AICAR at 0.2 mM", "value": "only minimal effect"}, {"measurement": "effect on cell growth", "setting": "[3]; TRX-E-002-1 25 ng/ml, mono therapies or combination", "value": "minimal effect"}]}
